This is an account of results in US20230399341A1, “7-PHENYL SUBSTITUTED 2-AMINOQUINAZOLINE INHIBITORS OF HPK1” (MERCK SHARP & DOHME LLC, priority 2020, published 2023).

A word on the IC50: it is the concentration that inhibits the measured activity by half. Low values mean greater potency in that assay, high ones weaker potency in that assay.

This assay concerns the target T1, Human HPK1, catalytic domain (Homo sapiens, UniProt Q92918).
T1 sequence (Q92918 1-346): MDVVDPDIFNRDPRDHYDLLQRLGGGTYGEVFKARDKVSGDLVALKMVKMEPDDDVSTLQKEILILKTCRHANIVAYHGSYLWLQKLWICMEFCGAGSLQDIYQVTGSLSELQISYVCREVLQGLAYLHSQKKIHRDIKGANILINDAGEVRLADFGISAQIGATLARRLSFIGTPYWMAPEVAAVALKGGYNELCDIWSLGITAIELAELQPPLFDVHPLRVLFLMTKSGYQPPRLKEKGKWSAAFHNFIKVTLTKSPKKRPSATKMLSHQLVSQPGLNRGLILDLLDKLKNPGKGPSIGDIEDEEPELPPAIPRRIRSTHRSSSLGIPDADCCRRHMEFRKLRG
The assay can be described thus: HPK1-SLP76 TR-FRET Assay. It counts as biochemical. The conditions noted are these: 75 pM HPK1, ATP 10 uM, SLP76 10 nM, 30 min pre-incubation, 60 min reaction. Background: TR-FRET usually uses a lanthanide donor and a delayed reading to cut background.

In turn, `COc1cc2c(cc1Nc1ncc3ccc(-c4c(C)cccc4F)cc3n1)CN(C)CC2` [Compound 1-5, 7-(2-fluoro-6-methylphenyl)-N-(6-methoxy-2-methyl-1,2,3,4-tetrahydroisoquinolin-7-yl)quinazolin-2-amine] registered a half-maximal inhibitory concentration (IC50) of 230 nM.

Turning to `COc1cc2c(cc1Nc1ncc3ccc(-c4cnn(C)c4)cc3n1)CNCC2` [Compound 1-34, N-(6-methoxy-1,2,3,4-tetrahydroisoquinolin-7-yl)-7-(1-methyl-1H-pyrazol-4-yl)quinazolin-2-amine], it took 1.49 nM to reach half-maximal inhibition (IC50). The molecule `COc1cc2c(cc1Nc1ncc3ccc(Nc4cccc(C(=O)N(C)C)c4)cc3n1)CN(C)CC2` [Compound 3-34, 3-({2-[(6-methoxy-2-methyl-1,2,3,4-tetrahydroisoquinolin-7-yl)amino]quinazolin-7-yl}-amino)-N,N-dimethylbenzamide] returned an IC50 of 81.5 nM. The value for `COc1cc(C(C)S(C)(=O)=O)ccc1Nc1ncc2c(N)c(F)c(-c3cnc4c(c3C)NCCO4)cc2n1` (single isomer, unassigned) [Compound 2-55, (R or S)-6-fluoro-N˜2˜-{2-methoxy-4-[1-(methylsulfonyl)ethyl]phenyl}-7-(8-methyl-2,3-dihydro-1H-pyrido[2,3-b][1,4]oxazin-7-yl)quinazoline-2,5-diamine] was 1.62 nM; that for `Cc1ccncc1-c1cc2nc(Nc3ccc(CS(C)(=O)=O)cc3)ncc2c(N)c1F` [Compound 2-44, 6-fluoro-7-(4-methylpyridin-3-yl)-N~2~- {4-[(methylsulfonyl)methyl]phenyl}quinazoline-2,5-diamine] was 0.194 nM; that for `CNC(=O)c1ccc(Nc2ncc3c(N)cc(N4C(=O)OC[C@@H]4C)cc3n2)cc1` [Compound 3-79] was 0.255 nM.

For the molecule `Cc1c(-c2cc3nc(Nc4ccc5c(c4)CN(C)C(C)C5)ncc3c(N)c2F)cnc2c1NCCO2` (single isomer, unassigned) [Compound 2-86, (R or S)—N2-(2,3-dimethyl-1,2,3,4-tetrahydroisoquinolin-7-yl)-6-fluoro-7-(8-methyl-2,3-dihydro-1H-pyrido[2,3-b][1,4]oxazin-7-yl)quinazoline-2,5-diamine], the IC50 turned out to be 0.0382 nM. Then `CNCC1CN(c2ccc3cnc(Nc4cc5c(cc4OC)CCN(C)C5)nc3c2)C(=O)O1` (racemic) [Compound 3-12, (S and R)-3-12-[(6-methoxy-2-methyl-1,2,3,4-tetrahydroiso-quinolin-7-yl)amino]quinazolin-7-yl}-5-[(methylamino)methyl]-1,3-oxazolidin-2-one], with 94.2 nM; and `CCC1COC(=O)N1c1ccc2cnc(Nc3cc4c(cc3OC)CCN(C)C4)nc2c1` (single isomer, unassigned) [Compound 3-13, (S or R)-4-ethyl-3-{2-[(6-methoxy-2-methyl-1,2,3,4-tetrahydroisoquinolin-7-yl)amino]quinazolin-7-yl}-1,3-oxazolidin-2-one], with 1.05 nM.

The molecule `COc1cc2c(cc1Nc1ncc3ccc(-c4ccc5c(c4)COCC5)cc3n1)CNCC2` [Compound 1-76, 7-(3,4-dihydro-1H-2-benzopyran-7-yl)-N-(6-methoxy-1,2,3,4-tetrahydroisoquinolin-7-yl)quinazolin-2-amine] returned an IC50 of 218 nM. As for `CN1Cc2cc(Nc3ncc4c(N)c(F)c(-c5cnc6c(c5)NCCO6)cc4n3)ccc2C2(CC2)C1` [Compound 2-151, 7-(2,3-dihydro-1H-pyrido[2,3-b][1,4]oxazin-7-yl)-6-fluoro-N~2~-(2′-methyl-2′,3′-dihydro-1′H-spiro[cyclopropane-1,4′-isoquinolin]-7′-yl)quinazoline-2,5-diamine], the IC50 came out at 0.267 nM. Then `C[C@@H]1COC(=O)N1c1cc(N)c2cnc(Nc3ccc(S(C)(=O)=O)cc3)nc2c1` [Compound 3-77, (R)-3-(5-amino-2-((4-(methyl-sulfonyl)phenyl)amino)quinaz-olin-7-yl)-4-methyloxazolidin-2-one], with 24.3 nM; and `COc1cc2c(cc1Nc1ncc3ccc(-c4cncc(NS(C)(=O)=O)c4)cc3n1)CNCC2` [Compound 1-37, N-(5-{2-[(6-methoxy-1,2,3,4-tetrahydroisoquinolin-7-yl)amino]quinazolin-7-yl}pyridin-3-yl)methanesulfonamide], with 27.9 nM; and `CNC(=O)C1(c2ccc(Nc3ncc4c(N)c(F)c(-c5cnc6c(c5C)NCCO6)cc4n3)cc2)CCC1` [Compound 2-82, 1-(4-((5-amino-6-fluoro-7-(8-methyl-2,3-dihydro-1H-pyrido[2,3-b][1,4]oxazin-7-yl)quinazolin-2-yl)amino)phenyl)-N-methylcyclobutane-1-carboxamide], with 0.0309 nM. In the case of `Cc1c(-c2c(F)c(N)c3cnc(Nc4cc5c(cc4F)CCN(C)C5)nc3c2Cl)cnc2c1NCCO2` [Compound 2-184, (+ and −)-8-chloro-6-fluoro-N~2~-(6-fluoro-2-methyl-1,2,3,4-tetrahydroisoquinolin-7-yl)-7-(8-methyl-2,3-dihydro-1H-pyrido[2,3-b][1,4]oxazin-7-yl)quinazoline-2,5-diamine], the half-inhibitory concentration (IC50) worked out at 3.67 nM. Against the preceding molecule, the IC50 is about 120-fold higher. Molecule `COc1cc2c(cc1Nc1ncc3ccc(-c4ccc(-n5cccn5)nc4)cc3n1)CN(C)CC2` [Compound 1-107, N-(6-methoxy-2-methyl-1,2,3,4-tetrahydroisoquinolin-7-yl)-7-[6-(1H-pyrazol-1-yl)pyridin-3-yl]quinazolin-2-amine] yielded an IC50 of 488 nM. Then `Cc1c(-c2cc3nc(Nc4cnc5c(c4)CN(C)CC5)ncc3cc2F)cnc2c1NCCO2` [Compound 1-135, 6-fluoro-7-(8-methyl-2,3-dihydro-1H-pyrido[2,3-b][1,4]oxazin-7-yl)-N-(6-methyl-5,6,7,8-tetrahydro-1,6-naphthyridin-3-yl)quinazolin-2-amine], with 0.482 nM; and `COc1cc2c(cc1Nc1ncc3cc(Cl)c(-c4cnc5c(c4C)NCCO5)cc3n1)CN(C)CC2` [Compound 1-96, 6-chloro-N-(6-methoxy-2-methyl-1,2,3,4-tetrahydroisoquinolin-7-yl)-7-(8-methyl-2,3-dihydro-1H-pyrido[2,3-b][1,4]oxazin-7-yl)quinazolin-2-amine], with 1.85 nM.

Regarding `COc1cc2c(cc1Nc1ncc3ccc(-c4ccc5c(c4)OCCO5)cc3n1)CNCC2` [Compound 1-70, 7-(2,3-dihydro-1,4-benzodioxan-6-yl)-N-(6-methoxy-1,2,3,4-tetrahydroisoquinolin-7-yl)quinazolin-2-amine], 140 nM corresponded to half-maximal inhibition (IC50).

With `Cc1c(-c2cc3nc(Nc4cc5c(cc4C(N)=O)CCN(C)C5)ncc3c(N)c2F)cnc2c1NCCO2` [Compound 2-87, 7-((5-amino-6-fluoro-7-(8-methyl-2,3-dihydro-1H-pyrido[2,3-b][1,4]oxazin-7-yl)quinazolin-2-yl)amino)-2-methyl-1,2,3,4-tetrahydroisoquinoline-6-carboxamide], the IC50 worked out at 100 nM. In turn, `CNC(=O)C(C)c1ccc(Nc2ncc3cc(F)c(-c4cnc5c(c4C)NCCO5)cc3n2)cc1` (single isomer, unassigned) [Compound 1-116, (R or S)-2-(4-{[6-fluoro-7-(8-methyl-2,3-dihydro-1H-pyrido[2,3-b][1,4]oxazin-7-yl)quinazolin-2-yl]amino}phenyl)-N-methylpropanamide] yielded a concentration for half-maximal inhibition (IC50) of 0.221 nM. This IC50 lies about 450-fold lower than the previous one. As for `Cc1c(-c2cc3nc(Nc4ccc5c(c4)CN(C)CC5)ncc3c(N)c2F)cnc2c1NCC(C)O2` (single isomer, unassigned) [Compound 2-141, (R or S)-7-(3,8-dimethyl-2,3-dihydro-1H-pyrido[2,3-b][1,4]oxazin-7-yl)-6-fluoro-N2-(2-methyl-1,2,3,4-tetrahydroisoquinolin-7-yl)quinazoline-2,5-diamine], the IC50 is 0.0505 nM.

As to `COc1cc2c(cc1Nc1ncc3ccc(-c4cccc(CO)c4)cc3n1)CNCC2` [Compound 1-60, (3-{2-[(6-methoxy-1,2,3,4-tetrahydroisoquinolin-7-yl)amino]quinazolin-7-yl}phenyl)methanol], the 50% inhibitory concentration (IC50) turned out to be 20.5 nM.

For the molecule `Cc1c(-c2c(F)c(N)c3cnc(Nc4cc5c(cc4F)CCN(C)C5)nc3c2Cl)cnc2c1NCCO2` [Compound 2-185, (+ and −)-8-chloro-6-fluoro-N~2~-(6-fluoro-2-methyl-1,2,3,4-tetrahydroisoquinolin-7-yl)-7-(8-methyl-2,3-dihydro-1H-pyrido[2,3-b][1,4]oxazin-7-yl)quinazoline-2,5-diamine], inhibition was half-maximal at 0.0303 nM (IC50).

With `Cc1c(-c2cc3nc(Nc4ccc(C5CCN(C)C5=O)cc4)ncc3c(N)c2F)cnc2c1NCCO2` (single isomer, unassigned) [Compound 2-146, (R or S)-3-(4-{[5-amino-6-fluoro-7-(8-methyl-2,3-dihydro-1H-pyrido[2,3-b][1,4]oxazin-7-yl)quinazolin-2-ylamino}phenyl)-1-methylpyrrolidin-2-one], the IC50 was 0.0505 nM. This IC50 is about 1.7-fold higher than that of the molecule before. The value for `COc1ccncc1Nc1ncc2c(N)c(F)c(-c3cnc4c(c3C)NCCO4)cc2n1` [Compound 2-20, 6-fluoro-N~2~-(4-methoxypyridin-3-yl)-7-(8-methyl-2,3-dihydro-1H-pyrido[2,3-b][1,4]oxazin-7-yl)quinazoline-2,5-diamine] was 76.1 nM; that for `COc1cc2c(cc1Nc1ncc3ccc(NCC4CC(=O)N(C)C4)cc3n1)CN(C)CC2` (stereo in doubt) [Compound 3-48, (4S)-4-[({2-[(6-methoxy-2-meth-yl-1,2,3,4-tetrahydroisoquinolin-7-yl)amino]quinazolin-7-yl}-amino)methyl]-1-methylpyrrol-idin-2-one] was 531 nM.

Consider `COc1ccccc1Nc1ncc2c(N)c(F)c(-c3cnc4c(c3C)NCCO4)cc2n1` [Compound 2-71, 6-fluoro-N~2~-(2-methoxyphenyl)-7-(8-methyl-2,3-dihydro-1H-pyrido[2,3-b][1,4]oxazin-7-yl)quinazoline-2,5-diamine], for which half-maximal inhibition (IC50) required 0.254 nM.
